The text below walks through data of US20220378780A1, “PHARMACEUTICAL COMPOSITIONS COMPRISING POH DERIVATIVES” (NeOnc Technologies, Inc., priority 2019, published 2022).

Data set [1] deals with c-myc, cyclin D1, activated caspase-3 and cleaved PARP-1 in MyLa cells. Kind of data set: Western blot of marker proteins with anti-oxidants or H2O2. The format is cell-based, human. The note with it: for effect of anti-oxidant on NEO212-induced marker changes: 200 and 500 μM AA or 100 and 300 μM b-ME before 80 μM NEO212, 48 hours. The text has this: 2. Material and methods 2.1. […] 2.2. […] 2.3. […] 2.4.
In general terms: Immunoblotting shows a protein as a band on a membrane.

The test system of data set [2] is subcutaneous U-87 gliomas. Nature of the data set: Nude mouse subcutaneous glioma model, tumor growth inhibition. The format is in vivo, nude mice. The note with it: local application via Q-tip, 1 cc/application/day, 8 weeks; growth over 60 days. How it is done: Inhibition of tumor growth by butyryl-POH was studied in a nude mouse subcutaneous glioma model. Mice were injected with U-87 glioma cells (500,000 cells/injection) and allowed to form a palpable nodule over two weeks. Once palpable nodule was formed, the mice were treated with local application of various compounds as indicated in FIGS. 9A and 9B via a Q-tip (1 cc/application/day) over a period of 8 weeks.

Data set [3] has as its system TMZ sensitive (U251) cells. Kind of data set: Colony forming assay, TMZ sensitive U251. The format is cell-based, human. How it is done:
(§1) Colony forming assays were carried out after cells were treated with TMZ alone, POH alone, and the TMZ-POH conjugate. […] Cancer Lett. 2011 Mar. 28; 302(2):100-8.

Data set [4] concerns TMZ resistant (U251TR) U251 cells. Nature of the data set: Colony forming assay, TMZ resistant U251TR. The format is cell-based, human. How it is done: as §1
In data set [5] the test system is USC-04 glioma cancer stem cells. Nature of the data set: MTT cytotoxicity assay, USC-04. The format is cell-based. The conditions noted are these: USC-04; TMZ 0-400 uM, POH 0-2 mM. The text has this:
(§2) Cancer Lett. 2011 Mar. 28; 302(2):100-8.
A general note: Tetrazolium dyes change colour on reduction, which living cells bring about.

Data set [6] relates to USC-02 glioma cancer stem cells. Kind of data set: MTT cytotoxicity assay, USC-02. The class given is cell-based. The note with it: USC-02; TMZ 0-400 uM, POH 0-2 mM.
Description: as §2

The next data set concerns HUT102 cells. Nature of the data set: MTT cell viability assay, HUT102 (Example 15). The note with it: HUT102, 72 hours. The class given is cell-based, human. The text has this:
(§3) 2. Material and methods 2.1. […] 2.2. […] 2.3. […] 2.4. […] 2.5.

For data set [7], the system named is glioblastoma, breast cancer, or melanoma cell lines. The note with it: various in vitro cytotoxicity assays; cited from earlier work.
Data set [8] relates to U87, A172 and U251 human glioma cells. Kind of data set: MTT cytotoxicity assay on human malignant glioma cells. The class given is cell-based. The text has this:
In vitro efficacy of the present composition can be determined using methods well known in the art. For example, the cytotoxicity of the present monoterpene (or sesquiterpene) and/or the therapeutic agents may be studied by MTT [3-(4,5-dimethylthiazol-2-yl)-2,5-diphenyl tetrazolium bromide] cytotoxicity assay. MTT assay is based on the principle of uptake of MTT, a tetrazolium salt, by metabolically active cells where it is metabolized into a blue colored formazon product, which can be read spectrometrically. J. of Immunological Methods 65: 55 63, 1983. The cytotoxicity of the present monoterpene (or sesquiterpene) derivative and/or the therapeutic agents may be studied by colony formation assay. Functional assays for inhibition of VEGF secretion and IL-8 secretion may be performed via ELISA. Cell cycle block by the present monoterpene (or sesquiterpene) derivative and/or the therapeutic agents may be studied by standard propidium iodide (PI) staining and flow cytometry. Invasion inhibition may be studied by Boyden chambers. In this assay a layer of reconstituted basement membrane, Matrigel, is coated onto chemotaxis filters and acts as a barrier to the migration of cells in the Boyden chambers. Only cells with invasive capacity can cross the Matrigel barrier. Other assays include, but are not limited to cell viability assays, apoptosis assays, and morphological assays.
Then U87, A172 and U251 cells were treated with dimethyl celecoxib bisPOH carbamate (POH-DMC) (e.g., synthesized by the method in Example 1), and the MTT cytotoxicity assays performed (FIG. 2).
Then TMZ-resistant glioma cell lines U87, A172 and U251 cells were treated with temozolomide POH carbamate (POH-TMZ) (e.g., synthesized by the method in Example 3).

In a further data set the test system is A172 human glioma cells. Nature of the data set: MTT assay, rolipram vs POH-Rolipram, A172. The format is cell-based. The conditions noted are these: A-172 cells, 48 hours. How it is done:
(§4) To compare the cytotoxicity of Rolipram POH Carbamate (POH-Rolipram) (e.g., synthesized by the method in Example 5) with rolipram, a […] inducing differentiation and apoptosis in glioma cells, A172, U87, U251 and LN229 human glioma cells were treated with either POH-Rolipram or rolipram for 48 hours. […] In the presence of POH-rolipram, IC50 is achieved at concentrations as low as 50 uM. […] IC50 is not met at 1000 uM. […] POH-rolipram achieves IC50 at 50 uM, with almost 100% cytoxicity at 100 uM. […] On the other hand, IC50 for POH-rolipram is achieved at 100 uM, with almost 100% cytotoxicity at […].

In the next data set the test system is U87 human glioma cells. Kind of data set: MTT assay, rolipram vs POH-Rolipram, U87. The class given is cell-based. The note with it: U-87 cells, 48 hours. The protocol:
as §4

A further data set relates to U251 human glioma cells. Nature of the data set: MTT assay, rolipram vs POH-Rolipram, U251. The class given is cell-based. The note with it: for IC50: 48 hours, MTT. The protocol:
as §4

In another data set the test system is LN229 human glioma cells. Kind of data set: MTT assay, rolipram vs POH-Rolipram, LN229. The class given is cell-based. The conditions noted are these: for IC50: MTT. The protocol:
as §4

The next data set deals with HuT 78 cells. Nature of the data set: MTT assay on HuT 78 cells (Example 14). The conditions noted are these: HuT 78, 72 hours. How it is done: HuT 78 cells are cutaneous T lymphocytes derived from a patient with Sézary syndrome.
HuT 78 cells were treated in vitro with (i) temozolomide (50, 100, 250 μM), (ii) POH-TMZ conjugate (“NEO212”, 25, 50, 100 μM), (iii) NEO412 which is the triple conjugate of temozolomide (TMZ), perillyl alcohol (POH), and linoleic acid (25, 50, 100, 250 μM), or (iv) vehicle alone. Seventy-two hours after the addition of drugs or vehicle, cell viability was determined by standard MTT (methylthiazoletetrazolium) assay.

The next data set deals with MyLa cells. Nature of the data set: MTT cell viability assay, MyLa (Example 15). The class given is cell-based, human. The note with it: Homo sapiens, 72 hours.
Description: as §3

The subject of data set [9] is HUT78 cells. Nature of the data set: FACS analysis of cell death with 7-AAD. The class given is cell-based, human. The conditions noted are these: HUT78, highest concentration 300, 72 hours.
Description: as §3

For data set [10] the following is noted: cancer patients; cited from earlier work.
The test system of data set [11] is HUT78 cells. Nature of the data set: MTT cell viability assay, HUT78 (Example 15).
Description: Pharmacological agents—NEO212 was dissolved in DMSO at 100 mM. TMZ was purchased from Sigma Aldrich (St. Louis, Mo.) and dissolved in DMSO (Santa Cruz Biotechnology, Dallas, Tex.) to a concentration of 50 mM. POH was purchased from Sigma-Aldrich and diluted in DMSO to 100 mM. […] Stock solutions of all drugs were stored at −20° C. Staurosporine (STSP) was purchased from Selleck Chemicals (Houston, Tex.), stored at 4° C. protected from light, and dissolved in DMSO before use. Ascorbic acid (AA) and beta-mercaptoethanol (b-ME) (Sigma Aldrich) were prepared fresh before use. Crystalline AA was dissolved in phosphate-buffered saline (PBS) to 25 mM; b-ME was diluted in medium to 25 mM. […] Cell lines—Three different human CTLC cell lines were used. […] Both media also contained 100 U/mL penicillin and 0.1 mg/mL streptomycin. Penicillin, streptomycin, and RPMI (prepared with raw materials from Cellgro/MediaTech, Manassas, Va.) were provided by the Cell Culture Core lab of the USC/Norris Comprehensive Cancer Center. […] Cells were kept in a humidified incubator at 37° C. and a 5% CO2 atmosphere. FBS was obtained from Omega Scientific (Tarzana, Calif.) and from X&Y Cell Culture (Kansas City, Mo.). […] MTT assay—Methylthiazoletetrazolium (MTT) assays were performed as follows. Cells were seeded into 96-well plates in a volume of 50 μL per well at 3.0-5.0×10^5 cells/mL. An additional 50 μL of medium containing various concentrations of drug (or vehicle) was added and the cells were incubated for different lengths of time. This was followed by the addition of 10 μL thiazolyl-blue tetrazolium (i.e., MTT; Sigma Aldrich) from a stock solution of 5 mg/mL in phosphate-buffered saline (PBS). Cells were returned to the incubator for 4 hours. Thereafter, the reaction was stopped and the cells were lysed by the addition of 100 μL solubilization solution (10% sodium dodecyl sulfate in 0.01 M hydrochloric acid). The 96-well plate was left in the cell culture incubator over night for complete solubilization of the MTT crystals, and the optical density (OD) of each well was determined the next day in an ELISA plate reader at 560 nm. The background value (=OD of control wells containing medium without cells+MTT+solubilization solution) was subtracted from all measured values. In individual experiments, each treatment condition was set up in quadruplicate, and each experiment was repeated several times independently. […] Cell proliferation analysis—Cell proliferation was assessed by counting cells over time. Independent cell cultures were exposed to different concentrations of NEO212. At different times, aliquots of cells were removed, mixed with Trypan blue, and counted in a hemocytometer. Blue cells were considered dead, whereas unstained cells were counted as live cells. […] Fluorescence-activated cell sorting (FACS) analysis—Cells were seeded in 6-well tissue culture plates at 2×10^5 cells/mL, followed by drug treatment. After 72 hours, cells were collected, washed twice with PBS, transferred to a microcentrifuge tube, and suspended in 200 μL of 1× binding buffer solution, which was made fresh from 10x binding buffer (0.2 μm sterile-filtered 0.1 M HEPES, pH 7.4; 1.4 M NaCl; 25 mM CaCl2)). Then 1 μL of a 1 mg/mL 7-amino-actinomycin D (7-AAD) solution (Thermo Fisher Scientific, Waltham, Mass.) was added. After 20 minutes of incubation on ice, cell fluorescence was analyzed on a FACSAria Flow Cytometer (Becton Dickinson Biosciences Ltd., Franklin Lakes, N.J.).

Molecules are shown by their SMILES.

Take `O=C1O[C@H]([C@@H](O)CO)C(O)=C1O` [AA, ascorbic acid]: in data set [1], the “effect of anti-oxidant on NEO212-induced marker changes” value is recorded as “prevented the anticancer impact of NEO212”.

On to `C=C(C)C1CC=C(COC(=O)CCC)CC1` (stereo not shown) [Butyryl-POH], for which, in [2], the “inhibition of tumor growth” value is reported as “greatest inhibition of tumor growth”.

Take `OO` [H2O2, hydrogen peroxide]: the “effect on proliferation and apoptosis markers” value in [1] (200 μM H2O2, 48 hours) is “clear down-regulation of c-myc and cyclin D1 proteins, along with strong activation of caspase-3 and cleavage of PARP-1”.

Usually IC50 stands for the point on the concentration scale where inhibition reaches its midpoint. In the case of `C=C(C)[C@@H]1CC=C(CO)CC1` [POH, perillyl alcohol, reference compound], the “cytotoxicity in colony forming assay” value in data set [3] and in data set [4] was “demonstrated cytotoxicity” throughout. Further, the “cytotoxicity in MTT assay” value in data set [5] and in [6] was “demonstrated cytotoxicity” each time. In addition, in the data set on HUT102 cells (up to 300 μM), the “activity on viability in MTT assay” value is given as “very minimal activity”. Also, in data set [7], the IC50 was 700 to 1800 µM.

On to `C=C(C)C1CC=C(COC(=O)N(C(=O)OCC2=CCC(C(=C)C)CC2)S(=O)(=O)c2ccc(-n3nc(C(F)(F)F)cc3-c3cc(C)ccc3C)cc2)CC1` (stereo not shown) [POH-DMC], for which the “cytotoxicity in MTT assay” value in data set [8] was “much better cytotoxicity than DMC alone”.

In the case of `C=C(C)C1CC=C(COC(=O)N2CC(c3ccc(OC)c(OC4CCCC4)c3)CC2=O)CC1` (stereo not shown) [POH-rolipram, 4-(3-cyclopentyloxy-4-methoxyphenyl)-2-oxo-pyrrolidine-1-carboxylic acid 4-isopropenyl cyclohex-1-enylmethyl ester], the half-maximal inhibitory concentration (IC50) with A172 human glioma cells stood at 50 µM; in the data set with U87 human glioma cells it was 180 µM; with U251 human glioma cells (U251 cells), 50 µM; in the data set on LN229 human glioma cells (48 hours) it was 100 µM. Also, the cytotoxicity in the data set on U251 human glioma cells (U251 cells, at 100 uM) is ~100%; in the data set with LN229 human glioma cells (at 10 uM), ~100%.

In the case of `Cn1nnc2c(C(N)=O)ncn2c1=O` [TMZ, temozolomide, reference compound], the “cytotoxicity in MTT assay” value in data set [8] is “minimal cytotoxicity”; in data set [5], “did not induce significant cytotoxicity”; in data set [6], “did not induce significant cytotoxicity”. Further, the “cytotoxicity in colony forming assay” value is recorded as “demonstrated cytotoxicity” in data set [3] and “minimal cytotoxicity” in [4]. Further, the “cytotoxic effect on MF cells in MTT assay” value with HuT 78 cells is “does not show much cytotoxicity”. For the same molecule, the IC50 was 6 to 8 µM in the data set with HUT102 cells (Homo sapiens, HuT-102); > 300 µM with MyLa cells; > 300 µM in the data set with HUT78 cells [11] (HUT78, 72 hours). Besides, the cell death with HUT78 cells [9] came to 26%. For the same molecule, the peak plasma levels in data set [10] was 50 to 70 µM. Further, the reduction of viability result in the data set on HUT78 cells [11] (HUT78, 100 μM) is listed as “about 30%”.

`OCCS` [b-ME, beta-mercaptoethanol]: in data set [1], the “effect of anti-oxidant on NEO212-induced marker changes” value is given as “prevented the anticancer impact of NEO212”.

For `COc1ccc(C2CNC(=O)C2)cc1OC1CCCC1` (stereo not shown) [rolipram, reference compound], the concentration for half-maximal inhibition (IC50) with A172 human glioma cells (Homo sapiens) is ~1000 µM; in the data set on U87 human glioma cells (Homo sapiens, U-87 MG), > 1000 µM; with U251 human glioma cells (Homo sapiens, U-251, U251 cells) it was 170 µM; in the data set on LN229 human glioma cells (Homo sapiens, LN-229, 48 hours), > 100 µM. The same molecule came in with a plateau cytotoxicity in the data set with U251 human glioma cells (human, 48 h) of 60%.
